From US20230119324A1, “EGFR INHIBITION TRIGGERS AN ADAPTIVE RESPONSE BY CO-OPTING ANTIVIRAL SIGNALING PATHWAYS IN LUNG CANCER” (The United States Government as represented by the …, priority 2020, published 2023)

Assays:
[1] = tested on: EGFR mutant NSCLC cell lines; experiment: AlamarBlue cell viability assay, EGFR mutant NSCLC cell lines; assay type: cell-based; details: for effect on pro-survival effect of exogenous Type I IFNs under EGFR inhibition: EGFR mutant lines, 50 ng/mL IFNα1 or IFNβ1, 72 h, Etanercept 50 µg/mL, BMS-345541 0.1 µM
Experimental: (§1) Cell viability assays were conducted with AlamarBlue Cell Viability Reagent from ThermoFisher (Waltham, MA), following the manufacturer’s protocol. Cells were cultured in Coming (Corning, NY) 96-well black plates with clear bottom and detected by the POLARstar Omega Microplate Reader (BMG LABTECH) (excitation at 544 nm and emission at 590 nm). At least 3 independent experiments were done.

[2] = tested on: Type I interferons (IFNα1, IFNβ1); experiment: qPCR and ELISA for Type I interferons in NSCLC cell lines; assay type: cell-based, human; details: BX795 1 µM, BMS-345541 0.1 µM
Experimental: Total RNA was isolated by TRIzol Reagent (Fisher Scientific). cDNA Reverse Transcription was performed by using High-Capacity cDNA Reverse Transcription Kit (Applied Biosystems). PCR primers were synthesized by IDT (Coralville, IA). Each PCR reaction was carried out in triplicate in a 20 µl volume using SYBR Green Master Mix (Applied Biosystems) for 15 minutes at 95° C. for initial denaturing, followed by 40 cycles of 95° C. for 15 s and 60° C. for 60 s in ViiA 7 Real-Time PCR System (Applied Biosystems). At least three independent experiments were done. Values for each gene were normalized to expression levels of ACTB (β-Actin) mRNA. Primer sequences were as follows.
To detect IFNα and IFNβ levels in medium, cells were cultured in serum free medium and treated with indicated drugs for 48 hours. Supernatant was then collected and concentrated using a Pierce protein concentrator (Thermo-Fisher). To test IFNα and IFNβ in lysates, cell and tumor lysates were extracted using RIPA buffer. Total protein concentrations were determined by Pierce BCA Protein Assay Kit (Fisher Scientific). Then, the levels of IFNα and IFNβ protein were measured by ELISA using human IFNα ELISA kit (41100) and human IFNβ ELISA kit (41440), from PBL Assay Science (Piscataway, NJ) according to the manufacturer’s protocol.
ATCB (β-Actin) expression was the loading control.
IFNα1 and IFNβ1 mRNA levels were detected by qPCR with β-Actin as the loading control.
IFNα1 and IFNβ1 mRNA levels were detected by qPCR. β-Actin was used as the loading control. Data refers to mean ± S.E.M, n=3 independent repeated experiments. One-way ANOVA with Dunnett’s test was used to determine adjusted p value for comparison between untreated and each treated sample. *: p<0.05, **: p<0.01, ***: p<0.001. H1666 is reported to harbor IFNA1 homodeletion in COSMIC (Catalogue Of Somatic Mutations In Cancer)-v90 http://cancer.sanger.ac.uk/cosmic (Updated 5 Sep. 2019), also in Data from a CPRIT (Cancer Prevention & Research Institute of Texas)-funded NGS (next generation sequencing) project by Dr. John Minna, UT Southwestern Medical Center, and Data from Dr. Adi Gazdar, UT Southwestern Medical Center. All other cell lines used in this research were searched on those databases above and confirmed to harbor neither IFNA1 nor IFNB1 homodeletion. Western blots are representative of 3 independent experiments with similar results. Cropped images are shown. Uncropped Western blot images are shown in Source Data.
The protein concentration of IFNα1 and IFNβ1 in cell lysates were measured by ELISA. […]
IFNA1 andIFNB1 mRNA levels were tested by qPCR. IκBα-DN overexpression was detected by Western blot. […]
Referring to FIGS. 14T-U, H1975 cells were treated with 0.1 µM Afatinib for indicated time points, IFNA1 and IFNB1 mRNA levels were detected by qPCR.

[3] = tested on: IRF3; experiment: ISRE / IFI27-ISRE luciferase reporter assay; assay type: cell-based; details: EGFR mutant cells; erlotinib 0.1 µM and 1 µM BX795, 24 h
Experimental: (§2) Cells were plated in 48 well dishes followed by plasmid transfection with two reporters detecting activation of IRF3, ISRE-luciferase reporter or IFI27-ISRE luciferase reporter^22, using lipofectamine 2000. A dual-luciferase reporter assay system was used according to the instructions of the manufacturer (Promega, Madison WI). Firefly luciferase activity was measured in the POLARstar Omega Microplate Reader (BMG LABTECH) and normalized based on Renilla luciferase activity. Three independent experiments were done in triplicate.

[4] = tested on: TBK1 and IRF3; experiment: Western blot for TBK1 and IRF3 activation in NSCLC cell lines; assay type: cell-based; details: EGFR mutant cells; 0.1 µM erlotinib and 1 µM BX795, 24 hours
Experimental: (§3) Western blot and immunoprecipitation were performed according to standard protocols. Western blot results are representative of at least 3 independent experiments. EGFR (06-847) antibody was from EMD Millipore (Billerica, MA); p-EGFR (Tyr1068) (2236), p-TBK1 (Ser172) (5483), TBK1 (3504), IKKε (2905), IRF3 (11904), K63-Ub (12930), RIG-I (3743), STAT1 (9172), p-STAT1 (Tyr701) (9167), AhR (83200), LAMIN A/C (4777), STING (3337), p-STING (Ser366) (19781), PD1 (86163), PD-L1 (13684), PD-L2 (82723) and IκBα (4814) antibodies were from Cell Signaling Technology (Danvers, MA); IFNAR1 (sc-7391), IFNGR1 (sc-12755), TNFR1 (sc-8346), and β-Actin (sc-47778) were from Santa Cruz Biotechnology (Dallas, TX); TRIM32 (Mab6515) antibody was from R&D (Minneapolis, MN); p-IRF3 (Ser386) (ab76493) antibody was from Abcam (Cambridge, MA).

[5] = tested on: NF-κB; experiment: NF-κB luciferase reporter assay, TNF stimulation; assay type: cell-based; details: EGFR mutant lines; 10 µg/mL Etanercept 1 h, then 10 ng/mL TNF 24 h
Experimental: as §2
Referring to FIG. 16G and FIG. 16H, EGFR mutant lines were transfected with an NF-κB reporter for 48 h, followed by 10 µg/mL Etanercept for 1 h and then 10 ng/mL TNF for 24 h, followed by a luciferase assay or Western blot.

[6] = tested on: H1975 cells; experiment: AlamarBlue assay in H1975 cells; assay type: cell-based; details: 10 µg/mL Anifrolumab with 0.1 µM Afatinib, 72 hours
Experimental: as §1
(§4) IFNAR1 siRNA was confirmed by Western blot.

[7] = tested on: EGFRwt NSCLC cell lines; experiment: AlamarBlue cell viability assay, EGFRwt NSCLC cell lines; assay type: cell-based; details: 72 h
Experimental: as §1
Western blot confirming the silencing of IFNAR1.
Data represents mean ± S.E.M. of three independent repeated experiments. *: p<0.05, **: p<0.01, ***: p<0.001, by two-way ANOVA adjusted by Bonferroni’s correction. Western blots are representative of 3 independent experiments with similar results. Cropped images are shown. Uncropped Western blot images are shown in Source Data.

[8] = tested on: PD-L1; experiment: Western blot for PD-L1 in NSCLC cell lines; assay type: cell-based; details: HCC827 and H3255; 100 or 10 nM erlotinib 24 h, 10 µg/mL Anifrolumab
Experimental: as §3
PD-1, PD-L1, and PD-L2 expression was detected by Western blot. PD-L1 expression levels were partly shown above. Signalstrength was represented by symbols. -: undetected, +: weak, ++: expressed, +++: strong signals. Western blot and Immunofluorescent staining images are representative of 3 independent experiments with similar results. Cropped images are shown. Uncropped Western blot images are shown in Source Data.

[9] = tested on: STAT1; experiment: Western blot for total and phosphorylated STAT1; assay type: cell-based; details: 0.1 or 1 µM erlotinib with 10 µg/mL Anifrolumab
Experimental: as §3
Cell lysates were collected and subjected to Western blot for detection of total and phosphorylated STAT1 expression. β-Actin was the loading control.

[10] = tested on: HCC827 derived ER3, ER4A, ER4B, ER5; experiment: AlamarBlue assay in HCC827-derived erlotinib-resistant lines; assay type: cell-based; details: 10 µg/mL Anifrolumab with erlotinib, 72 hours
Experimental: as §1, §4

[11] = EGFR mutant cell lines, 0.1 µM erlotinib 24 h, Etanercept 10 µg/mL

Molecule: Cc1ccc2nc(NCCN)c3ncc(C)n3c2c1 [BMS-345541]
- effect on pro-survival effect of exogenous Type I IFNs under EGFR inhibition ([1]; 0.1 µM erlotinib): fail to abrogate the protective effect of type I IFNs
- effect on erlotinib-induced upregulation of IFN ([2]; EGFRwt cell lines, 1 µM erlotinib 24 h): blocks EGFR inhibition-induced upregulation of IFN

Molecule: O=C(NCCCNc1nc(Nc2cccc(NC(=O)N3CCCC3)c2)ncc1I)c1cccs1 [BX-795]
- combination with EGFR inhibition in cell viability assays ([1]; four EGFR mutant cell lines, 0.01 µM erlotinib and 1 µM BX795, 72 hours): synergized with EGFR inhibition
- effect on erlotinib-induced IRF3 transcriptional activity [3]: loss of erlotinib-induced IRF3 transcriptional activity
- effect on EGFR inhibition-induced IRF3 phosphorylation [4]: loss of EGFR inhibition-induced IRF3 phosphorylation
- effect on erlotinib-induced upregulation of IFN [2, 11]: completely suppressed erlotinib-induced upregulation of IFN

Molecule: Etanercept
- effect on pro-survival effect of exogenous Type I IFNs under EGFR inhibition ([1]; 0.1 µM erlotinib): fails to block the pro-survival effects of IFNs
- effect on TNF-induced activation of NF-κB [5]: efficiently blocked TNF-induced activation of NF-κB
- effect on erlotinib-induced upregulation of IFN [2, 11]: failed to inhibit erlotinib induced upregulation of type I IFNs

B1: Anifrolumab: monoclonal antibody directed against IFNAR that inhibits the binding of Type I IFNs to its receptor (antibody, chains of the INN, looked up)
heavy: EVQLVQSGAEVKKPGESLKISCKGSGYIFTNYWIAWVRQMPGKGLESMGIIYPGDSDIRYSPSFQGQVTISADKSITTAYLQWSSLKASDTAMYYCARHDIEGFDYWGRGTLVTVSSASTKGPSVFPLAPSSKSTSGGTAALGCLVKDYFPEPVTVSWNSGALTSGVHTFPAVLQSSGLYSLSSVVTVPSSSLGTQTYICNVNHKPSNTKVDKRVEPKSCDKTHTCPPCPAPEFEGGPSVFLFPPKPKDTLMISRTPEVTCVVVDVSHEDPEVKFNWYVDGVEVHNAKTKPREEQYNSTYRVVSVLTVLHQDWLNGKEYKCKVSNKALPASIEKTISKAKGQPREPQVYTLPPSREEMTKNQVSLTCLVKGFYPSDIAVEWESNGQPENNYKTTPPVLDSDGSFFLYSKLTVDKSRWQQGNVFSCSVMHEALHNHYTQKSLSLSPG
light: EIVLTQSPGTLSLSPGERATLSCRASQSVSSSFFAWYQQKPGQAPRLLIYGASSRATGIPDRLSGSGSGTDFTLTITRLEPEDFAVYYCQQYDSSAITFGQGTRLEIKRTVAAPSVFIFPPSDEQLKSGTASVVCLLNNFYPREAKVQWKVDNALQSGNSQESVTEQDSKDSTYSLSSTLTLSKADYEKHKVYACEVTHQGLSSPVTKSFNRGEC
- sensitivity to afatinib [6]: rendered sensitive to afatinib
- sensitivity to erlotinib (cell viability) ([7]; EGFRwt lines with Ros1 mutation, EML4/ALK fusion, Met amplification, Braf mutation, 10 µg/mL Anifrolumab): resulted in sensitivity to erlotinib
- sensitivity to erlotinib (cell viability) ([7]; resistant EGFRwt/KRas cell lines, 1 µM erlotinib with 10 µg/mL Anifrolumab): enhanced sensitivity to erlotinib
- effect on erlotinib-induced upregulation of PD-L1 [8]: abrogated
- effect on erlotinib induced activation of STAT1 [9]: blocks erlotinib induced activation of STAT1
- sensitivity to erlotinib in secondary resistant lines [10]: restore sensitivity to erlotinib

B2: IFNα: Recombinant human IFNα1, exogenous Type I interferon (protein, UniProt P01562 24-189, looked up)
Interferon alpha-1/13: CDLPETHSLDNRRTLMLLAQMSRISPSSCLMDRHDFGFPQEEFDGNQFQKAPAISVLHELIQQIFNLFTTKDSSAAWDEDLLDKFCTELYQQLNDLEACVMQEERVGETPLMNADSILAVKKYFRRITLYLTEKKYSPCAWEVVRAEIMRSLSLSTNLQERLRRKE
- protection from erlotinib-induced cell death ([1]; EGFR mutant cell lines, 0.1 µM erlotinib, IFNα1 or IFNβ1 50 ng/mL, 72 h): protects NSCLC cells with mutant EGFR activating from cell death
